Measured values taken from ChEMBL document CHEMBL1147393, “Two new modified trichothecenes from Fusarium sporotrichioides” (J Nat Prod, 1993).

Assay: Cytotoxicity against syrian golden hamsters BHK21 cells
Type: cell-based, Mesocricetus auratus
Details: hamster, bhk-21

## CC(=O)O[C@]12CO[C@@H]3C=C(C)CC[C@]3(C)[C@@]1(C)C[C@@H](O)C2
  LC100: 1000 ng/mL

## CC1=C[C@H]2OC[C@]3(O)C[C@H](O)C[C@]3(C)[C@@]2(C)CC1
  LC100: 1000 ng/mL
